Experimental data reported in US8735384B2, “Amino heteroaryl compounds as beta-secretase modulators and methods of use” (Amgen Inc., priority 2010, dated 2014).
Read-outs that look alike come from different tables or passages of the source.

Experiments:
BACE1 = BACE1 (Homo sapiens, UniProt P56817); experiment: In vitro enzymatic BACE FRET assay; assay type: biochemical; settings: beta secretase enzyme 0.2 nM, FRET substrate 50 nM, pH 4.2
Method in brief: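 Enzyme activity was measured as release of quenching from a 50 nM fluorophore/quencher peptide spanning the cleavage site, over 1 h. This followed 1 h pre-incubation of 0.2 nM enzyme with compound dilutions at pH 4.2 (acetate, 10% DMSO, genapol). Tris addition ended the reaction before fluorescence was measured.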

[1] = test system: Aβ40 in conditioned medium of cells stably expressing Amyloid Precursor Protein (APP); experiment: In vitro BACE cell-based assay (HEK cell assay), Aβ40 sandwich ELISA; settings: Homo sapiens, HEK293, 24 h, inhibition of Aβ40, 24 h incubation, read-out: HEK cell assay (IC50 class)
Method in brief: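 Aβ40 in conditioned medium measured after 24 h compound exposure (10-point series, 100 μM or 10 μM start, 0.1% DMSO) of cells stably expressing APP, seeded 40K/well. Detection: pAb40/6E10-biotin sandwich ELISA at 4°C with time-resolved europium read-out; IC50 derived from percent of control.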

[2] = read-out: BACE1 FRET assay (IC50 class)

Sequence of BACE1 (P56817 46-501, species assumed): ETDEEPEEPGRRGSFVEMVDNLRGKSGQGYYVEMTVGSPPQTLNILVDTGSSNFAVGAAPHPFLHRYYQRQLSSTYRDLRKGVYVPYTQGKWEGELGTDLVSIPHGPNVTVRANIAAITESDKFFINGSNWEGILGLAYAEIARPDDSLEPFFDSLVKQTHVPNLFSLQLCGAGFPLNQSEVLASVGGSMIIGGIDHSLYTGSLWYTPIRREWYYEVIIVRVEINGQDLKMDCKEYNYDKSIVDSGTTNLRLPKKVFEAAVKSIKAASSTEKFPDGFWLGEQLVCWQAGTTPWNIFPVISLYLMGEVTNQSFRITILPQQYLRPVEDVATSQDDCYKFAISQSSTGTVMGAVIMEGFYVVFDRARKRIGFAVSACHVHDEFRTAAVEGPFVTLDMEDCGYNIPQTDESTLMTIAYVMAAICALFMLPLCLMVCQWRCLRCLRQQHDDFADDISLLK

Structure (SMILES)	IC50 (BACE1; read-out: BACE1 FRET assay (IC50, numeric)) [nM]	IC50 [1] [nM]	IC50 (BACE1; [2]) [nM]
CSC1=NCCN1C(=O)c1cccc(C)c1-c1ccc2nc(N)c(N3CCOCC3)cc2c1 [Example 114, (2-(2-amino-3-morpholinoquinolin-6-yl)-3-methylphenyl)(2-(methylthio)-4,5-dihydro-1H-imidazol-1-yl)methanone]	1140	> 5000	–
Cc1cccc(C(=O)N(C)Cc2cccc3ccccc23)c1-c1ccc2nc(N)c(N3CCOCC3)cc2c1 [Example 135, 2-(2-amino-3-morpholinoquinolin-6-yl)-N,3-dimethyl-N-(naphthalen-1-ylmethyl)benzamide]	–	1010 to 5000	100 to 500
Cc1cccc(C(=O)N2CCCC2)c1-c1ccc2nc(N)c(C3CCCCO3)cc2c1 (stereo not drawn) [Example 29, (2-(2-amino-3-(tetrahydro-2H-pyran-2-yl)quinolin-6-yl)-3-methylphenyl)(pyrrolidin-1-yl)methanone]	–	1010 to 5000	100 to 500
Cc1cccc(C(=O)N(C)CCC(C)C)c1-c1ccc2nc(N)c(N3CCOCC3)cc2c1 [Example 119, 2-(2-amino-3-morpholinoquinolin-6-yl)-N-isopentyl-N,3-dimethylbenzamide]	–	1010 to 5000	100 to 500
CCCCN(CC)C(=O)c1cccc(C)c1-c1ccc2nc(N)c(N3CCOCC3)cc2c1 [Example 118, 2-(2-amino-3-morpholinoquinolin-6-yl)-N-butyl-N-ethyl-3-methylbenzamide]	–	1010 to 5000	501 to 1000
Cc1cccc(C(=O)N2CCOC(C)(C)C2)c1-c1ccc2nc(N)c(N3CCOCC3)cc2c1 [Example 43, (2-(2-amino-3-morpholinoquinolin-6-yl)-3-methylphenyl)(2,2-dimethylmorpholino)methanone]	–	1010 to 5000	100 to 500
CCCN(C(=O)c1cccc(C)c1-c1ccc2nc(N)c(N3CCOCC3)cc2c1)C(C)C [Example 106, 2-(2-amino-3-morpholinoquinolin-6-yl)-N-isopropyl-3-methyl-N-propylbenzamide]	–	> 5000	501 to 1000
Cc1cccc(C2=NCCc3ccccc32)c1-c1ccc2nc(N)c(N3CCOCC3)cc2c1 [Example 4, 6-(2-(3,4-dihydroisoquinolin-1-yl)-6-methylphenyl)-3-morpholinoquinolin-2-amine]	–	501 to 1000	100 to 500
Cc1cccc(C(=O)c2ccc(Cl)cc2)c1-c1ccc2nc(N)c(N3CCOCC3)cc2c1 [Example 176, (2-(2-amino-3-morpholinoquinolin-6-yl)-3-methylphenyl)(4-chlorophenyl)methanone]	–	1010 to 5000	< 100
Cc1cccnc1C(=O)c1cccc(C)c1-c1ccc2nc(N)c(N3CCOCC3)cc2c1 [Example 189, (2-(2-amino-3-morpholinoquinolin-6-yl)-3-methylphenyl)(3-methylpyridin-2-yl)methanone]	–	501 to 1000	100 to 500
Cc1cccc(N2CC(C)(C)OCC2=O)c1-c1ccc2nc(N)c(N3CCOCC3)cc2c1 [Example 49, 4-(2-(2-amino-3-morpholinoquinolin-6-yl)-3-methylphenyl)-6,6-dimethylmorpholin-3-one]	–	1010 to 5000	100 to 500
Cc1cccc(CCC(C)(C)C)c1-c1ccc2nc(N)c(N3CCOCC3)cc2c1 [Example 172, 6-(2-(3,3-dimethylbutyl)-6-methylphenyl)-3-morpholinoquinolin-2-amine]	–	1010 to 5000	< 100
Cc1cccc(C(=O)N2CCCC2)c1-c1ccc2nc(N)c(N3CCCCC3)cc2c1 [Example 61, (2-(2-amino-3-(piperidin-1-yl)quinolin-6-yl)-3-methylphenyl)(pyrrolidin-1-yl)methanone]	–	1010 to 5000	501 to 1000
Cc1cccc(-c2ncc3ccccn23)c1-c1ccc2nc(N)c(N3CCOCC3)cc2c1 [Example 30, 6-(2-(imidazo[1,5-a]pyridin-3-yl)-6-methylphenyl)-3-morpholinoquinolin-2-amine]	–	1010 to 5000	100 to 500

More lines, now with the values ahead:

IC50 (BACE1; read-out: BACE1 FRET assay (IC50, numeric)) [nM]	IC50 [1] [nM]	IC50 (BACE1; [2]) [nM]	Structure (SMILES)
–	< 100	< 100	Nc1nc2ccc(-c3c(CCc4ccccc4)cccc3C(=O)N3CCCC3)cc2cc1N1CCOCC1 [Example 162, (2-(2-amino-3-morpholinoquinolin-6-yl)-3-phenethylphenyl)(pyrrolidin-1-yl)methanone]
–	> 5000	501 to 1000	CC(C)(C)COc1ccccc1-c1ccc2nc(N)c(N3CCOCC3)cc2c1 [Example 51, 3-morpholino-6-(2-(neopentyloxy)phenyl)quinolin-2-amine]
–	501 to 1000	< 100	Cc1cccc(C(=O)N2CCSC2)c1-c1ccc2nc(N)c(N3CCOCC3)cc2c1 [Example 89, (2-(2-amino-3-morpholinoquinolin-6-yl)-3-methylphenyl)(thiazolidin-3-yl)methanone]
–	1010 to 5000	< 100	Nc1nc2ccc(-c3c(Cl)cccc3C(=O)N3CCCCC3)cc2cc1N1CCOCC1 [Example 143, (2-(2-amino-3-morpholinoquinolin-6-yl)-3-chlorophenyl)(piperidin-1-yl)methanone]
–	1010 to 5000	100 to 500	CCN(C(=O)c1cccc(C)c1-c1ccc2nc(N)c(N3CCOCC3)cc2c1)C1CCCCC1 [Example 113, 2-(2-amino-3-morpholinoquinolin-6-yl)-N-cyclohexyl-N-ethyl-3-methylbenzamide]
–	> 5000	100 to 500	CC(C)(C)CC(=O)c1ccccc1-c1ccc2nc(N)c(N3CCOCC3)cc2c1 [Example 153, 1-(2-(2-amino-3-morpholinoquinolin-6-yl)phenyl)-3,3-dimethylbutan-1-one]
–	> 5000	100 to 500	Nc1nc2ccc(-c3ccccc3C(=O)C3CCCC3)cc2cc1N1CCOCC1 [Example 149, (2-(2-amino-3-morpholinoquinolin-6-yl)phenyl)(cyclopentyl)methanone]
–	501 to 1000	< 100	Cc1cccc(C(=O)C2CCCC2)c1-c1ccc2nc(N)c(N3CCOCC3)cc2c1 [Example 184, (2-(2-amino-3-morpholinoquinolin-6-yl)-3-methylphenyl)(cyclopentyl)methanone]
–	1010 to 5000	< 100	Nc1nc2ccc(-c3ccccc3C(=O)C3CCCCC3)cc2cc1N1CCOCC1 [Example 152, (2-(2-amino-3-morpholinoquinolin-6-yl)phenyl)(cyclohexyl)methanone]
–	501 to 1000	< 100	Cc1cccc(C(=O)c2ccccn2)c1-c1ccc2nc(N)c(N3CCOCC3)cc2c1 [Example 157, (2-(2-amino-3-morpholinoquinolin-6-yl)-3-methylphenyl)(pyridin-2-yl)methanone]
–	1010 to 5000	100 to 500	CC=CC(=O)c1cccc(C)c1-c1ccc2nc(N)c(N3CCOCC3)cc2c1 [Example 183, 1-(2-(2-amino-3-morpholinoquinolin-6-yl)-3-methylphenyl)but-2-en-1-one]
–	1010 to 5000	100 to 500	COC1CCCN(C(=O)c2cccc(C)c2-c2ccc3nc(N)c(N4CCOCC4)cc3c2)C1 (stereo not drawn) [Example 82, (2-(2-amino-3-morpholinoquinolin-6-yl)-3-methylphenyl)(3-methoxypiperidin-1-yl)methanone]
–	1010 to 5000	100 to 500	Nc1nc2ccc(-c3ccc(Cl)cc3C(=O)N3CCCC3)cc2cc1N1CCOCC1 [Example 147, (2-(2-amino-3-morpholinoquinolin-6-yl)-5-chlorophenyl)(pyrrolidin-1-yl)methanone]
